Data from ChEMBL document CHEMBL1201862, “PubChem BioAssay data set” (2004).
Active and inactive are the calls of the source. Unless noted, the rule behind the calls is not given here.

Key:
[1] = inhibitors of fibronectin matrix deposition, dose response, AH1F cells, Alexa488-FN fluorescence, cherry-picks (AID 1035475); format: functional, cell-based
Caspase-6 = target: T1, Caspase-6 (Homo sapiens, UniProt P55212); test: human caspase-6 inhibitors, dose response, biochemical, VEID-R110 fluorescence, dry powder retest (AID 743332)
T1 sequence (P55212 whole entry): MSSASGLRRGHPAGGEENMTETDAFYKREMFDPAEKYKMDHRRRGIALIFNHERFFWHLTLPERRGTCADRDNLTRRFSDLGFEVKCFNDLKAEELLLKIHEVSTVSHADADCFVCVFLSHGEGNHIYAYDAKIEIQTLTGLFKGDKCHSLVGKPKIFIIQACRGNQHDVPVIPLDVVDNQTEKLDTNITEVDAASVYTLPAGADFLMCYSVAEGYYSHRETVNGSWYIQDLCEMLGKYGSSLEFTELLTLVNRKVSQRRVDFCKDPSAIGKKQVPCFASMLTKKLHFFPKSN

[2] = Keap1-Nrf2 protein-protein interaction inhibitors, dose response, biochemical, fluorescence polarization, dry powder, set 2 (AID 651801)
[3] = Keap1-Nrf2 protein-protein interaction inhibitors, dose response, biochemical, fluorescence polarization, dry powder samples (AID 651798)
[4] = target: Potassium channel subfamily K member 3 (Homo sapiens, UniProt O14649); test: TASK1 (KCNK3) potassium channel inhibitors, SAR follow-up, CHO cells, FluxOR thallium flux (AID 652212); format: functional
[5] = target: Potassium channel subfamily K member 9 (Homo sapiens, UniProt Q9NPC2); test: TASK3 (KCNK9) channel inhibitors, thallium flux, SAR follow-up, selectivity assay for TASK1 inhibitor project, cell-based, FluxOR thallium flux, concentration-response (AID 652211); format: functional;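 also: potency is for inhibitors of the channel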
[6] = Cytotoxicity screening for potential Inhibitors of Bacterial Capsule Biogenesis (4).; format: functional
[7] = Keap1 Kelch-Nrf2 peptide binding inhibitors, dose response, biochemical, fluorescence polarization, dry powder, set 3 (AID 651806)
[8] = target: Sphingosine 1-phosphate receptor 1 (Homo sapiens, UniProt P21453); test: Late-stage counterscreen for antagonists of kappa opioid receptor 1 (OPRK1): fluorescence-based cell-based dose response assay to identify antagonists of Sphingosine 1-Phosphate Receptor 1 (S1P1).; format: functional
[9] = target: Kappa-type opioid receptor (Homo sapiens, UniProt P41145); test: Late-stage fluorescence-based cell-based dose response assay for antagonists of kappa opioid receptor 1 (OPRK1).; format: functional
[10] = target: Delta-type opioid receptor (Homo sapiens, UniProt P41143); test: Late-stage results from the probe development effort to identify antagonists of OPRK1: fluorescence-based cell-based dose response OPRD1 counterscreen, Set 2.; format: functional
Mu-type opioid receptor = Mu-type opioid receptor (Homo sapiens, UniProt P35372); test: Late-stage results from the probe development effort to identify antagonists of OPRK1: luminescence-based cell-based dose response OPRM1 counterscreen, Set 2.; format: functional
[11] = target: Metabotropic glutamate receptor 3 (Rattus norvegicus, UniProt P31422); test: mGlu3 negative allosteric modulator potency, dose response, HEK/GIRK cells, thallium flux, rat (AID 651839); format: functional
[12] = Late stage assay provider results from the probe development effort to identify inhibitors of the Plasmodium falciparum M18 Aspartyl Aminopeptidase (M18AAP): radiolabel-based cell-based dose response assay to identify compounds that inhibit P. falciparum growth in RBCs, Set 2..; format: functional
[13] = CEM21 cell cytotoxicity, dose response, cytotoxicity control, plate reader, dry powder (AID 687026); format: functional, cell-based
[14] = inhibitors of non-replicating M. tuberculosis, dose response, luciferase, dry powder (AID 651620); format: functional; details: Mycobacterium tuberculosis
[15] = growth inhibition of replicating M. tuberculosis, dose response, counter-screen, dry powder, IC90 (AID 651617); format: functional; details: Mycobacterium tuberculosis
[16] = inhibitors of non-replicating M. tuberculosis, dose response, luciferase, dry powder (AID 651619); format: functional; details: Mycobacterium tuberculosis
[17] = LGR2 antagonists, dose response, cell-based, HEK293, CRE-luciferase reporter, cherry pick (AID 743342); format: functional
[18] = A549 cell cytotoxicity, dose response, cytotoxicity control, plate reader, cherry-pick, antagonist series (AID 743412); format: functional, cell-based
[19] = YAP1 pathway inhibition via CTGF transcript levels, dose response, cell-based, DLD1 colon cancer, RT-qPCR, cherry-pick (AID 1053122); format: functional; details: Cancer cell lines

Sequence of Metabotropic glutamate receptor 3 (P31422 whole entry): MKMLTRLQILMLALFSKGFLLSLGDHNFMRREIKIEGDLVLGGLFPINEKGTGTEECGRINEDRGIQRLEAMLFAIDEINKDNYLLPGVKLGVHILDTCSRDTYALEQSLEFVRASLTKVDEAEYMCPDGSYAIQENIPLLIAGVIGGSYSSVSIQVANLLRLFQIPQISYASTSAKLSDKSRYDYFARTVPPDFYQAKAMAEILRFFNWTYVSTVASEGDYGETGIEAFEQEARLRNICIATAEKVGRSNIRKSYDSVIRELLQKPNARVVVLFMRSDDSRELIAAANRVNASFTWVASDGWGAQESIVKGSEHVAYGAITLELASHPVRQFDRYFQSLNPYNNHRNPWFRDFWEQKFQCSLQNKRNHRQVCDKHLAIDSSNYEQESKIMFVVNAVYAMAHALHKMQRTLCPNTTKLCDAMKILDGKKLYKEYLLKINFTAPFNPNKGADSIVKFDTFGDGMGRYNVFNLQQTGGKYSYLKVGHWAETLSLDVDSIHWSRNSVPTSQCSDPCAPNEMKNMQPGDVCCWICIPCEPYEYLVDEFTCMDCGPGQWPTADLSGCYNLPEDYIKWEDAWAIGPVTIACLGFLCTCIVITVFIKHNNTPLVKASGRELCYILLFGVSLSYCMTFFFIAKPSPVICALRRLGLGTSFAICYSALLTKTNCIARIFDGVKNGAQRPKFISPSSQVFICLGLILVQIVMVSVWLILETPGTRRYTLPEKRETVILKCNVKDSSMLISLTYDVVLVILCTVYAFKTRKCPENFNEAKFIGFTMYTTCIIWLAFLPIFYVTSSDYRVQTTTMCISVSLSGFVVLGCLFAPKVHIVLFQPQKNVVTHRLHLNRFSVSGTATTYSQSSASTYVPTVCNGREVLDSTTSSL
Sequence of Kappa-type opioid receptor (P41145 whole entry): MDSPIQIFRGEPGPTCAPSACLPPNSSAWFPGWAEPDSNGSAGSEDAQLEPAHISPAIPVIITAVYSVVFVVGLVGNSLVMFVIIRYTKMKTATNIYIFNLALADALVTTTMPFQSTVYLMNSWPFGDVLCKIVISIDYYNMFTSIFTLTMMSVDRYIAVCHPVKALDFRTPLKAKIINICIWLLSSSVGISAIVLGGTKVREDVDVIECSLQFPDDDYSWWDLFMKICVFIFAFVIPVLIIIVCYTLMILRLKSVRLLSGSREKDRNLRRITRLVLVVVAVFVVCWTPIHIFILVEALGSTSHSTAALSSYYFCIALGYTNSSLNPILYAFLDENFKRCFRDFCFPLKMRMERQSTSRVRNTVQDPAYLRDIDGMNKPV
Sequence of Sphingosine 1-phosphate receptor 1 (P21453 whole entry): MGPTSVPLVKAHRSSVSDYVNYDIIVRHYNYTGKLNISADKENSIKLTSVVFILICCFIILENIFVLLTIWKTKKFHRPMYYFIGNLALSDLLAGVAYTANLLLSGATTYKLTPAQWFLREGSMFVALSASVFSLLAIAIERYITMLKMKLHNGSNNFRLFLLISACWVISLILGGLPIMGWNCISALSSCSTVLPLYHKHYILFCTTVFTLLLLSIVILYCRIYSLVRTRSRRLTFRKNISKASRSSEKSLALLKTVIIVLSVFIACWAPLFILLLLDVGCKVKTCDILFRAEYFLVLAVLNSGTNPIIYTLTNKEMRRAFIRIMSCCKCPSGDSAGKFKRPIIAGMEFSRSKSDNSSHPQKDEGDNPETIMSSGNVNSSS
Sequence of Potassium channel subfamily K member 3 (O14649 whole entry): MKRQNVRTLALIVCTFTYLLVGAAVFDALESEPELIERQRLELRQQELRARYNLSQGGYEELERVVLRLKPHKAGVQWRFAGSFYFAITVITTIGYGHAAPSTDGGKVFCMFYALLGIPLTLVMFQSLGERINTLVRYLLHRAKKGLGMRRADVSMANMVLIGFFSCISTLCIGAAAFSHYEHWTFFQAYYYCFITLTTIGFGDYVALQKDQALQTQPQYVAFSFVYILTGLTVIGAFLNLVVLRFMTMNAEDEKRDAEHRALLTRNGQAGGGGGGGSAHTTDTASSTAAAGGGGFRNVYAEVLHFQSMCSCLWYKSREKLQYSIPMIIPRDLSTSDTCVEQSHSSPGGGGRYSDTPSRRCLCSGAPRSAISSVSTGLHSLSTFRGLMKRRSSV
Sequence of Potassium channel subfamily K member 9 (Q9NPC2 whole entry): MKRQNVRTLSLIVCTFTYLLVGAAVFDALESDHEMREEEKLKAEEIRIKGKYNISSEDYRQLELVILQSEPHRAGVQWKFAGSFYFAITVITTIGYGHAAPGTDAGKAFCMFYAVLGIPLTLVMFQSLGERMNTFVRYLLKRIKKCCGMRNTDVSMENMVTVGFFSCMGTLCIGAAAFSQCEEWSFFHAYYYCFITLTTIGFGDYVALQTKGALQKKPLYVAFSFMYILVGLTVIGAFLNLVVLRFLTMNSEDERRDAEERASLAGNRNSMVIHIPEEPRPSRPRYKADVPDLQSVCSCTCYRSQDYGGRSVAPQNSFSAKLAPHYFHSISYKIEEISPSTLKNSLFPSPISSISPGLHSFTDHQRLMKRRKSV
Sequence of Mu-type opioid receptor (P35372 whole entry): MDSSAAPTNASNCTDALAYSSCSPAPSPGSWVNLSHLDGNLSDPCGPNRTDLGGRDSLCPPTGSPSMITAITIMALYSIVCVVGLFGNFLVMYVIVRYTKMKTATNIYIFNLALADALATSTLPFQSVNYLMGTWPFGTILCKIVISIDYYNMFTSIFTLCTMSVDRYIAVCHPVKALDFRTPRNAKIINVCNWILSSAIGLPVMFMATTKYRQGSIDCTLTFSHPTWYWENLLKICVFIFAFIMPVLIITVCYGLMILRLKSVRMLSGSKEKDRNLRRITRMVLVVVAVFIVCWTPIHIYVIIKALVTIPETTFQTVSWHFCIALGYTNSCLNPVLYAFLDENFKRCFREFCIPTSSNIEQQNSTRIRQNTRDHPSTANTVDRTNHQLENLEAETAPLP
Sequence of Delta-type opioid receptor (P41143 whole entry): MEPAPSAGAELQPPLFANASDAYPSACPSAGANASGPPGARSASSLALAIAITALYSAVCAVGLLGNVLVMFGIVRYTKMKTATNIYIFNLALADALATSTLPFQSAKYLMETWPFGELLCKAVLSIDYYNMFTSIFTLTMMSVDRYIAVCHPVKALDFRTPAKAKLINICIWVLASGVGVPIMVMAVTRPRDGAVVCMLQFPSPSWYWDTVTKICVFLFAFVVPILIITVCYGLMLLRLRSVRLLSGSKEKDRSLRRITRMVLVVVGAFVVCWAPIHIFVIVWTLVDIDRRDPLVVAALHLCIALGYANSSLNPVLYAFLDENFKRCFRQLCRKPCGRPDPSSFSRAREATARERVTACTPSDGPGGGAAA

For `N#Cc1ccc(-c2ccc3c(c2)[C@@H]2[C@@H](CCN2S(=O)(=O)c2ccccc2F)[C@H](CO)N3)cc1`, the AC50 [1] was 24.5 µM (active).

In the case of `[O-][n+]1onc2c1CCc1c-2nn(-c2ccccc2)[n+]1[O-]`, the AC50 (Caspase-6) is reported as 22.9 µM (active).

With `O=C(O)C1CCCCC1C(=O)N1CCc2ccccc2C1CN1C(=O)c2ccccc2S1(=O)=O` (stereo unspecified) the AC50 [2] was 78.9 µM (active) and the AC50 [3] was 71.1 µM (active).

With `CCOc1ccccc1NC(=O)c1cccc(NC(=O)C2CCCCC2)c1` the IC50 [4] was 0.067 µM (active) and the IC50 [5] was 1.3 µM (active).

With `CC(C)(C)OC(=O)Nc1nc2ccc(C(=O)Nc3ccnc(F)c3)cc2s1` the CC50 [6] was > 300 µM (inactive).

In the case of `O=C(O)[C@H]1CCCC[C@H]1C(=O)N1CCc2ccccc2[C@H]1CNS(=O)(=O)c1ccc([N+](=O)[O-])cc1`, the AC50 [7] is reported as 88.3 µM (active).

For `COC(=O)c1cc(-c2ccc(OC)cc2)c(-c2ccc(OC)cc2)s1`, the IC50 [8] was > 50 µM (inactive), the IC50 [9] was 1.58 µM (active) and the IC50 [10] was 19.8 µM (inactive). For the same compound, the IC50 (Mu-type opioid receptor) was > 50 µM (inactive).

Work on `Cc1cc2cc(C#Cc3ccc(C(=O)N4CCCC(CO)C4)cc3)ccc2o1` (stereo unspecified) yielded an IC50 [11] of 3.91 µM.

With `COc1cc(Br)c(CCNc2ccnc3ccccc23)cc1OC` the IC50 [12] was 0.45 µM (active).

With `CCCOc1ccc(S(=O)(=O)NCc2ccncc2)c2ccccc12` the AC50 [13] was > 70 µM (inactive).

For `Fc1ccc(-c2nnc(SCc3ccccn3)o2)cc1`, the IC90 [14] was 4 µM (active), the IC90 [15] was 62 µM (active) and the IC90 [16] was 4 µM (active).

With `C[C@H](CO)N1C[C@H](C)[C@H](CN(C)C(=O)Nc2ccc(F)cc2)OCCCC[C@H](C)Oc2ccc(NC(=O)Nc3ccc(F)cc3)cc2C1=O` the AC50 [17] was 16.1 µM (active) and the AC50 [18] was > 47 µM (inactive).

In the case of `COc1ccccc1NC(=O)N1CCCCN2[C@@H](CO)[C@H](c3ccc(-c4cccc(C#N)c4)cc3)[C@@H]2C1`, the AC50 [19] is reported as 0.918 µM (active).
